According to the NIST ThermoML archive (doi:10.1021/acs.jced.8b00554):

Experiment: xn = mol fraction of the nth substance listed
Conditions: Liquid, Vibrating tube method

CCCCCCCCCC [decane] + CCCO
mass density [kg/m3]
Conditions | 323.15 K | 333.15 K
100 kPa, x2 = 0.1391 | – | 698
100 kPa, x2 = 0.1907 | – | 699.22
100 kPa, x2 = 0.3001 | – | 702.36
100 kPa, x2 = 0.4326 | – | 706.94
100 kPa, x2 = 0.6863 | – | 723.34
100 kPa, x2 = 0.8711 | – | 744.53
1000 kPa, x2 = 0.8711 | – | 745.47
1010 kPa, x2 = 0.3001 | – | 703.4
1010 kPa, x2 = 0.4326 | – | 708.03
1010 kPa, x2 = 0.6863 | – | 724.38
1020 kPa, x2 = 0.1391 | – | 699.13
1020 kPa, x2 = 0.1907 | – | 700.31
2000 kPa, x2 = 0.1391 | – | 700.15
2000 kPa, x2 = 0.1907 | – | 701.33
2000 kPa, x2 = 0.6863 | – | 725.39
2010 kPa, x2 = 0.4326 | – | 709.06
2020 kPa, x2 = 0.3001 | – | 704.44
2020 kPa, x2 = 0.8711 | – | 746.44
3000 kPa, x2 = 0.3001 | – | 705.44
3010 kPa, x2 = 0.1391 | – | 701.15
3010 kPa, x2 = 0.1907 | – | 702.33
3010 kPa, x2 = 0.4326 | – | 710.06
3010 kPa, x2 = 0.6863 | – | 726.41
3010 kPa, x2 = 0.8711 | – | 747.43
4000 kPa, x2 = 0.1391 | – | 702.13
4000 kPa, x2 = 0.1907 | – | 703.34
4010 kPa, x2 = 0.4326 | – | 711.1
4010 kPa, x2 = 0.8711 | – | 748.4
4020 kPa, x2 = 0.3001 | – | 706.45
4020 kPa, x2 = 0.6863 | – | 727.43
5000 kPa, x2 = 0.1907 | – | 704.33
5000 kPa, x2 = 0.3001 | – | 707.44
5010 kPa, x2 = 0.1391 | – | 703.13
5010 kPa, x2 = 0.6863 | – | 728.46
5020 kPa, x2 = 0.4326 | – | 712.1
5020 kPa, x2 = 0.8711 | – | 749.4
6000 kPa, x2 = 0.1391 | – | 704.1
6000 kPa, x2 = 0.1907 | – | 705.29
6000 kPa, x2 = 0.3001 | – | 708.43
6010 kPa, x2 = 0.4326 | – | 713.11
6010 kPa, x2 = 0.6863 | – | 729.45
6020 kPa, x2 = 0.8711 | – | 750.38
7000 kPa, x2 = 0.1391 | – | 705.07
7000 kPa, x2 = 0.4326 | – | 714.11
7000 kPa, x2 = 0.8711 | – | 751.38
7010 kPa, x2 = 0.3001 | – | 709.43
7020 kPa, x2 = 0.1907 | – | 706.27
7020 kPa, x2 = 0.6863 | – | 730.46
8000 kPa, x2 = 0.1391 | – | 706.06
8000 kPa, x2 = 0.4326 | – | 715.11
8010 kPa, x2 = 0.1907 | – | 707.25
8010 kPa, x2 = 0.6863 | – | 731.46
8020 kPa, x2 = 0.3001 | – | 710.42
8020 kPa, x2 = 0.8711 | – | 752.35
9010 kPa, x2 = 0.1391 | – | 707
9010 kPa, x2 = 0.1907 | – | 708.23
9010 kPa, x2 = 0.3001 | – | 711.39
9010 kPa, x2 = 0.4326 | – | 716.11
9010 kPa, x2 = 0.6863 | – | 732.47
9010 kPa, x2 = 0.8711 | – | 753.31
10000 kPa, x2 = 0.1391 | – | 707.95
10000 kPa, x2 = 0.4326 | 726.96 | 717.1
10010 kPa, x2 = 0.3001 | – | 712.39
10010 kPa, x2 = 0.6863 | 743.54 | 733.45
10020 kPa, x2 = 0.1907 | – | 709.15
10020 kPa, x2 = 0.8711 | 764.05 | 754.28
11000 kPa, x2 = 0.1391 | 717.57 | –
11000 kPa, x2 = 0.1907 | 719.05 | 710.11
11010 kPa, x2 = 0.1391 | – | 708.9
11010 kPa, x2 = 0.3001 | 723.06 | –
11010 kPa, x2 = 0.4326 | 727.85 | –
11010 kPa, x2 = 0.6863 | 744.43 | 734.43
11020 kPa, x2 = 0.3001 | – | 713.35
11020 kPa, x2 = 0.4326 | – | 718.06
11020 kPa, x2 = 0.8711 | 764.93 | 755.24
12000 kPa, x2 = 0.1907 | – | 711.08
12000 kPa, x2 = 0.3001 | 723.94 | –
12000 kPa, x2 = 0.4326 | – | 719.03
12010 kPa, x2 = 0.1391 | 718.43 | 709.82
12010 kPa, x2 = 0.6863 | 745.32 | 735.38
12020 kPa, x2 = 0.1907 | 719.94 | –
12020 kPa, x2 = 0.3001 | – | 714.31
12020 kPa, x2 = 0.4326 | 728.74 | –
12020 kPa, x2 = 0.8711 | 765.79 | 756.17
13000 kPa, x2 = 0.1391 | 719.28 | –
13000 kPa, x2 = 0.8711 | – | 757.09
13010 kPa, x2 = 0.1391 | – | 710.75
13010 kPa, x2 = 0.1907 | 720.8 | 712
13010 kPa, x2 = 0.3001 | 724.81 | –
13010 kPa, x2 = 0.4326 | – | 719.98
13010 kPa, x2 = 0.6863 | 746.21 | 736.35
13020 kPa, x2 = 0.3001 | – | 715.25
13020 kPa, x2 = 0.4326 | 729.62 | –
13020 kPa, x2 = 0.8711 | 766.65 | –
14000 kPa, x2 = 0.1907 | – | 712.92
14000 kPa, x2 = 0.3001 | 725.66 | –
14000 kPa, x2 = 0.4326 | 730.47 | –
14000 kPa, x2 = 0.6863 | 747.08 | –
14000 kPa, x2 = 0.8711 | – | 758.02
14010 kPa, x2 = 0.1391 | 720.12 | 711.65
14010 kPa, x2 = 0.3001 | – | 716.18
14020 kPa, x2 = 0.1907 | 721.64 | –
14020 kPa, x2 = 0.4326 | – | 720.92
14020 kPa, x2 = 0.6863 | – | 737.27
14020 kPa, x2 = 0.8711 | 767.51 | –
15000 kPa, x2 = 0.4326 | 731.33 | –
15000 kPa, x2 = 0.6863 | 747.92 | –
15000 kPa, x2 = 0.8711 | 768.36 | –
15010 kPa, x2 = 0.1391 | 720.95 | 712.53
15010 kPa, x2 = 0.1907 | – | 713.82
15010 kPa, x2 = 0.3001 | 726.5 | –
15010 kPa, x2 = 0.4326 | – | 721.82
15010 kPa, x2 = 0.6863 | – | 738.18
15010 kPa, x2 = 0.8711 | – | 758.93
15020 kPa, x2 = 0.1907 | 722.47 | –
15020 kPa, x2 = 0.3001 | – | 717.1
16000 kPa, x2 = 0.1907 | 723.29 | –
16000 kPa, x2 = 0.6863 | 748.78 | –
16000 kPa, x2 = 0.8711 | 769.18 | –
16010 kPa, x2 = 0.1391 | 721.76 | 713.4
16010 kPa, x2 = 0.1907 | – | 714.7
16010 kPa, x2 = 0.3001 | 727.33 | 717.99
16010 kPa, x2 = 0.4326 | 732.15 | 722.73
16010 kPa, x2 = 0.6863 | – | 739.1
16020 kPa, x2 = 0.8711 | – | 759.81
17000 kPa, x2 = 0.1391 | 722.56 | –
17000 kPa, x2 = 0.6863 | 749.59 | 740
17000 kPa, x2 = 0.8711 | – | 760.7
17010 kPa, x2 = 0.1907 | 724.12 | –
17010 kPa, x2 = 0.3001 | – | 718.88
17010 kPa, x2 = 0.4326 | 732.96 | 723.6
17010 kPa, x2 = 0.8711 | 770.01 | –
17020 kPa, x2 = 0.1391 | – | 714.27
17020 kPa, x2 = 0.1907 | – | 715.58
17020 kPa, x2 = 0.3001 | 728.15 | –
18000 kPa, x2 = 0.1391 | – | 715.12
18000 kPa, x2 = 0.1907 | – | 716.42
18000 kPa, x2 = 0.3001 | – | 719.72
18000 kPa, x2 = 0.4326 | – | 724.49
18000 kPa, x2 = 0.6863 | – | 740.88
18010 kPa, x2 = 0.1391 | 723.35 | –
18010 kPa, x2 = 0.3001 | 728.94 | –
18010 kPa, x2 = 0.4326 | 733.77 | –
18010 kPa, x2 = 0.6863 | 750.41 | –
18010 kPa, x2 = 0.8711 | 770.81 | –
18020 kPa, x2 = 0.1907 | 724.91 | –
18020 kPa, x2 = 0.8711 | – | 761.56
19000 kPa, x2 = 0.4326 | 734.57 | –
19010 kPa, x2 = 0.1391 | – | 715.93
19010 kPa, x2 = 0.1907 | 725.67 | 717.24
19010 kPa, x2 = 0.3001 | 729.72 | –
19010 kPa, x2 = 0.4326 | – | 725.32
19010 kPa, x2 = 0.6863 | 751.21 | 741.72
19010 kPa, x2 = 0.8711 | 771.61 | –
19020 kPa, x2 = 0.1391 | 724.11 | –
19020 kPa, x2 = 0.3001 | – | 720.57
19020 kPa, x2 = 0.8711 | – | 762.39
20000 kPa, x2 = 0.3001 | – | 721.37
20010 kPa, x2 = 0.1391 | 724.85 | –
20010 kPa, x2 = 0.1907 | 726.42 | 718.03
20010 kPa, x2 = 0.4326 | 735.37 | –
20010 kPa, x2 = 0.6863 | – | 742.58
20010 kPa, x2 = 0.8711 | 772.39 | 763.23
20020 kPa, x2 = 0.1391 | – | 716.72
20020 kPa, x2 = 0.3001 | 730.47 | –
20020 kPa, x2 = 0.4326 | – | 726.17
20020 kPa, x2 = 0.6863 | 752 | –
